Experimental findings from patent publication US8614327B2 (Vertex Pharmaceuticals Incorporated, priority 2004, dated 2013) are described below.

The target in the experiment is T1, ΔF508-CFTR (Homo sapiens, UniProt P13569, DEL508-508).
T1 construct: expressed in transfected cells
Description: Membrane potential optical (FRET/VIPR) assay, identification of potentiator compounds. Type of experiment: cell-based. The settings on record: Table 3, assay not given; for % Activity: relative efficacy. Put shortly: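 Double-addition potentiator screen: compound delivered in gluconate-substituted Cl^--free medium, membrane potential followed via CC2-DMPE/DiSBAC2(3) FRET on VIPR. Cells were ΔF508-CFTR-expressing NIH3T3 mouse fibroblasts, held 2 h at 37° C. then 24 h at 27° C. before assay.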

A value given as a limit tells only on which side of the number the result lay.

T1 sequence (P13569 with tags, fused parts or gaps DEL508-508): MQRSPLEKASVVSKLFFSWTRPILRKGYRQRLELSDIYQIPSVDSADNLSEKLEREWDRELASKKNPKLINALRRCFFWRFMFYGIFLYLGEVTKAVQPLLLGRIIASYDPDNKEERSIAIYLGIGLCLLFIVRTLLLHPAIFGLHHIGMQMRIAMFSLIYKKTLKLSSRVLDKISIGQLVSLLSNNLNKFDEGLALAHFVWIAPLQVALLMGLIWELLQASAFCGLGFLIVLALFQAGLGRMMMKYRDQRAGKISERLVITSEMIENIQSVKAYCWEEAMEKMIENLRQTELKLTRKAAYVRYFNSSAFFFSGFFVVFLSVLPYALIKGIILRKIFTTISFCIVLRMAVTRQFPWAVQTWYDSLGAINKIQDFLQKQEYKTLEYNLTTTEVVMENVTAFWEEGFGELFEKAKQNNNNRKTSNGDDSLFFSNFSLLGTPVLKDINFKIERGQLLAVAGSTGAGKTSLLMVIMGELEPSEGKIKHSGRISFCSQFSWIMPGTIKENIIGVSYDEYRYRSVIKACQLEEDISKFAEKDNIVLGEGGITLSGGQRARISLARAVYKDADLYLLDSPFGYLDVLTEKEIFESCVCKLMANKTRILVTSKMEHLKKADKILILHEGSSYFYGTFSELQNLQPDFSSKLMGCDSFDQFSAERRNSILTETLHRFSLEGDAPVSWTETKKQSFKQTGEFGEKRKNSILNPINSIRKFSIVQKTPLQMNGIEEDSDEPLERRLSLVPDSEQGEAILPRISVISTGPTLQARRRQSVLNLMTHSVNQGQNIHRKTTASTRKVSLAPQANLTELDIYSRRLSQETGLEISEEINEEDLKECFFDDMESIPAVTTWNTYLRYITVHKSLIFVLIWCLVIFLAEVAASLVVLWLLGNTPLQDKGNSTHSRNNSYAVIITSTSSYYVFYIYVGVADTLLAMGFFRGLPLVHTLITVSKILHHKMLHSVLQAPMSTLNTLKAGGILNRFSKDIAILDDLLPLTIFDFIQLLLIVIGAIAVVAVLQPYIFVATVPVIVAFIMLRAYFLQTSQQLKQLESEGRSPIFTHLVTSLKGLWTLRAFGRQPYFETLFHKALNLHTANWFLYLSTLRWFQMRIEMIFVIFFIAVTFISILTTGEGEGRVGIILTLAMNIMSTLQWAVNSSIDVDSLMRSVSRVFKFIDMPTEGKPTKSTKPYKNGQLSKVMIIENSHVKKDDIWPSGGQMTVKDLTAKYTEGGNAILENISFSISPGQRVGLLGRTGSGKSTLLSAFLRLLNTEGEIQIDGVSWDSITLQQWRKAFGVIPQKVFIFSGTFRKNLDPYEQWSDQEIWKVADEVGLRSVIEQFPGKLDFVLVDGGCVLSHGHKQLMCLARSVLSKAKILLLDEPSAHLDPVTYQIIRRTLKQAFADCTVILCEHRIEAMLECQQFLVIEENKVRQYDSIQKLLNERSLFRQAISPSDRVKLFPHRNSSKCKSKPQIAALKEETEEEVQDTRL

As to `O=C(Nc1cc2[nH]ccc2cc1-c1ccccc1)c1c[nH]c2ccccc2c1=O` [Compound 158, 4-Oxo-N-(5-phenyl-1H-indol-6-yl)-1H-quinoline-3-carboxamide], the EC50 (as a rule, the concentration that produces a half-maximal response) is less than 10 µM and the “% Activity” value is “++ (between 25% to 100%)”.

With `COC(=O)NC1CCCc2ccc(NC(=O)c3c[nH]c4ccccc4c3=O)cc21` (stereo not shown) [Compound 159, [7-[(4-Oxo-1H-quinolin-3-yl)carbonylamino]tetralin-1-yl]aminoformic acid methyl ester], the EC50 was 10 to 25 µM and the “% Activity” value was “++ (between 25% to 100%)”.

On to `CCCc1ccc(NC(=O)c2c[nH]c3ccccc3c2=O)cc1N` [Compound 160, N-(3-amino-4-propyl-phenyl)-4-oxo-1H-quinoline-3-carboxamide], for which the EC50 is less than 10 µM and the “% Activity” value is “++ (between 25% to 100%)”.

As for `CCOCCOc1cc(NC(=O)c2c[nH]c3ccccc3c2=O)ccc1C(C)(C)C` [Compound 161, N-[3-(2-ethoxyethoxy)-4-tert-butyl-phenyl]-4-oxo-1H-quinoline-3-carboxamide], the EC50 was less than 10 µM and the “% Activity” value is “++ (between 25% to 100%)”.

Consider `COc1ccc(NC(=O)c2c[nH]c3ccccc3c2=O)cn1` [Compound 162, N-(6-methoxy-3-pyridyl)-4-oxo-1H-quinoline-3-carboxamide], for which the concentration for a half-maximal effect (EC50) lay in the range of 25 to 60 µM and the “% Activity” value is “+ (<25%)”.

On to `CCOc1ccccc1-c1ccc(CN)cc1NC(=O)c1c[nH]c2ccccc2c1=O` [Compound 163, 4-Oxo-1,4-dihydro-quinoline-3-carboxylic acid (4-aminomethyl-2′-ethoxy-biphenyl-2-yl)-amide], for which the EC50 fell in the range of 10 to 25 µM and the “% Activity” value is given as “++ (between 25% to 100%)”.

Turning to `O=C(Nc1cccc(C(F)(F)F)c1)c1c[nH]c2ccccc2c1=O` [Compound 164, 4-oxo-N-[3-(trifluoromethyl)phenyl]-1H-quinoline-3-carboxamide], the EC50 was less than 10 µM and the “% Activity” value is “++ (between 25% to 100%)”.

In the case of `NS(=O)(=O)c1ccc(NC(=O)c2c[nH]c3ccccc3c2=O)cc1` [Compound 165, 4-oxo-N-(4-sulfamoylphenyl)-1H-quinoline-3-carboxamide], the EC50 was in the range of 25 to 60 µM and the “% Activity” value is “+ (<25%)”.

`COC(=O)c1ccc(-c2ccccc2NC(=O)c2c[nH]c3ccccc3c2=O)cc1` [Compound 166, 4-[2-[(4-oxo-1H-quinolin-3-yl)carbonylamino]phenyl]benzoic acid methyl ester]: the EC50 was less than 10 µM and the “% Activity” value is on record as “++ (between 25% to 100%)”.

`Cc1ccc(NC(=O)c2c[nH]c3ccccc3c2=O)cc1N` [Compound 167, N-(3-amino-4-methyl-phenyl)-4-oxo-1H-quinoline-3-carboxamide]: the half-maximal effective concentration (EC50) was 10 to 25 µM and the “% Activity” value was “++ (between 25% to 100%)”.

`O=C(Nc1cccnc1)c1c[nH]c2ccccc2c1=O` [Compound 168, 4-oxo-N-(3-pyridyl)-1H-quinoline-3-carboxamide]: the EC50 lay in the range of 25 to 60 µM and the “% Activity” value was “+ (<25%)”.

Turning to `Cn1ccc2ccc(NC(=O)c3c[nH]c4ccccc4c3=O)cc21` [Compound 169, N-(1-methyl-1H-indol-6-yl)-4-oxo-1H-quinoline-3-carboxamide], the EC50 lay in the range of 10 to 25 µM and the “% Activity” value is listed as “++ (between 25% to 100%)”.

For `O=C(Nc1ccc(Cl)cn1)c1c[nH]c2ccccc2c1=O` [Compound 170, N-(5-chloro-2-pyridyl)-4-oxo-1H-quinoline-3-carboxamide], the EC50 fell in the range of 25 to 60 µM and the “% Activity” value was “+ (<25%)”.

As for `O=C(Nc1ccccc1-c1cccc(Cl)c1Cl)c1c[nH]c2ccccc2c1=O` [Compound 171, N-[2-(2,3-dichlorophenyl)phenyl]-4-oxo-1H-quinoline-3-carboxamide], the EC50 was less than 10 µM and the “% Activity” value is “++ (between 25% to 100%)”.

Take `O=C(Nc1ccccc1-c1cc2ccccc2s1)c1c[nH]c2ccccc2c1=O` [Compound 172, N-(2-(benzo[b]thiophen-2-yl)phenyl)-1,4-dihydro-4-oxoquinoline-3-carboxamide]: the EC50 is less than 10 µM and the “% Activity” value was “++ (between 25% to 100%)”.

For the compound `Cc1cccc(NC(=O)c2c[nH]c3ccccc3c2=O)n1` [Compound 173, N-(6-methyl-2-pyridyl)-4-oxo-1H-quinoline-3-carboxamide], the EC50 was in the range of 25 to 60 µM and the “% Activity” value is “+ (<25%)”.

`CC(=O)c1ccc(-c2ccccc2NC(=O)c2c[nH]c3ccccc3c2=O)s1` [Compound 174, N-[2-(5-acetyl-2-thienyl)phenyl]-4-oxo-1H-quinoline-3-carboxamide]: the EC50 was less than 10 µM and the “% Activity” value is listed as “++ (between 25% to 100%)”.

Consider `CC(=O)N1CC2(CC2)c2ccc(NC(=O)c3c[nH]c4ccccc4c3=O)cc21` [Compound 175, 4-Oxo-1,4-dihydro-quinoline-3-carboxylic acid N-(1′-Acetyl-1′,2′-dihydrospiro[cyclopropane-1,3′-3H-indol]-6′-yl)-amide], for which the EC50 lay in the range of 10 to 25 µM and the “% Activity” value is recorded as “++ (between 25% to 100%)”.

Regarding `O=C(Nc1ccc(OC(F)(F)F)cc1)c1c[nH]c2ccccc2c1=O` [Compound 176, 4-oxo-N-[4-(trifluoromethoxy)phenyl]-1H-quinoline-3-carboxamide], the EC50 is less than 10 µM and the “% Activity” value was “++ (between 25% to 100%)”.

Take `CCCCOc1ccccc1NC(=O)c1c[nH]c2ccccc2c1=O` [Compound 177, N-(2-butoxyphenyl)-4-oxo-1H-quinoline-3-carboxamide]: the EC50 was less than 10 µM and the “% Activity” value was “+++ (>100%)”.

Regarding `CC(C)(C)c1ccccc1Oc1ccccc1NC(=O)c1c[nH]c2ccccc2c1=O` [Compound 178, 4-oxo-N-[2-(2-tert-butylphenoxy)phenyl]-1H-quinoline-3-carboxamide], the EC50 was less than 10 µM and the “% Activity” value was “++ (between 25% to 100%)”.

On to `NC(=O)c1cccc(NC(=O)c2c[nH]c3ccccc3c2=O)c1` [Compound 179, N-(3-carbamoylphenyl)-4-oxo-1H-quinoline-3-carboxamide], for which the EC50 lay within 25 to 60 µM and the “% Activity” value is listed as “+ (<25%)”.

For `CCc1cccc(C)c1NC(=O)c1c[nH]c2ccccc2c1=O` [Compound 180, N-(2-ethyl-6-methyl-phenyl)-4-oxo-1H-quinoline-3-carboxamide], the EC50 is less than 10 µM and the “% Activity” value was “++ (between 25% to 100%)”.

As to `Cc1ccc(-c2ccccc2NC(=O)c2c[nH]c3ccccc3c2=O)cc1` [Compound 181, 4-oxo-N-[2-(p-tolyl)phenyl]-1H-quinoline-3-carboxamide], the EC50 is less than 10 µM and the “% Activity” value is recorded as “++ (between 25% to 100%)”.

Regarding `O=C(Nc1ccccc1-c1ccc(F)cc1)c1c[nH]c2ccccc2c1=O` [Compound 182, N-[2-(4-fluorophenyl)phenyl]-4-oxo-1H-quinoline-3-carboxamide], the EC50 was less than 10 µM and the “% Activity” value is on record as “++ (between 25% to 100%)”.

As to `CC(C)(C)OC(=O)N1CCCc2ccc(NC(=O)c3c[nH]c4ccccc4c3=O)cc21` [Compound 183, 7-[(4-oxo-1H-quinolin-3-yl)carbonylamino]-1,2,3,4-tetrahydroquinoline-1-carboxylic acid tert-butyl ester], the EC50 is less than 10 µM and the “% Activity” value is listed as “++ (between 25% to 100%)”.

Take `O=C(Nc1ccc2cc[nH]c2c1)c1c(C(F)(F)F)[nH]c2ccccc2c1=O` [Compound 184, N-(1H-indol-6-yl)-4-oxo-2-(trifluoromethyl)-1H-quinoline-3-carboxamide]: the EC50 lay within 25 to 60 µM and the “% Activity” value was “+ (<25%)”.

Regarding `O=C(Nc1cccc(S(=O)(=O)N2CCOCC2)c1)c1c[nH]c2ccccc2c1=O` [Compound 185, N-(3-morpholinosulfonylphenyl)-4-oxo-1H-quinoline-3-carboxamide], the EC50 lay in the range of 25 to 60 µM and the “% Activity” value is on record as “+ (<25%)”.

Take `O=C(Nc1ccc2c(C3CCCC3)c[nH]c2c1)c1c[nH]c2ccccc2c1=O` [Compound 186, N-(3-cyclopentyl-1H-indol-6-yl)-4-oxo-1H-quinoline-3-carboxamide]: the EC50 was less than 10 µM and the “% Activity” value is listed as “++ (between 25% to 100%)”.

As to `CC(=O)n1ccc2ccc(NC(=O)c3c[nH]c4ccccc4c3=O)cc21` [Compound 187, N-(1-acetyl-1H-indol-6-yl)-4-oxo-1H-quinoline-3-carboxamide], the EC50 was less than 10 µM and the “% Activity” value is listed as “++ (between 25% to 100%)”.

In the case of `CCOC(=O)c1cc2cc[nH]c2cc1NC(=O)c1c[nH]c2ccccc2c1=O` [Compound 188, 6-[(4-oxo-1H-quinolin-3-yl)carbonylamino]-1H-indole-5-carboxylic acid ethyl ester], the EC50 is less than 10 µM and the “% Activity” value is given as “++ (between 25% to 100%)”.

With `O=C(Nc1ccc(OCc2ccccc2)cc1)c1c[nH]c2ccccc2c1=O` [Compound 189, N-(4-benzyloxyphenyl)-4-oxo-1H-quinoline-3-carboxamide], the EC50 was less than 10 µM and the “% Activity” value is reported as “++ (between 25% to 100%)”.

For `O=C(Nc1ccccc1-c1ccc(F)c(Cl)c1)c1c[nH]c2ccccc2c1=O` [Compound 190, N-[2-(3-chloro-4-fluoro-phenyl)phenyl]-4-oxo-1H-quinoline-3-carboxamide], the EC50 was less than 10 µM and the “% Activity” value is listed as “++ (between 25% to 100%)”.

For the compound `O=C(Nc1cccc2ncccc12)c1c[nH]c2ccccc2c1=O` [Compound 191, 4-oxo-N-(5-quinolyl)-1H-quinoline-3-carboxamide], the EC50 was 25 to 60 µM and the “% Activity” value was “+ (<25%)”.

For the compound `Cc1cccnc1NC(=O)c1c[nH]c2ccccc2c1=O` [Compound 192, N-(3-methyl-2-pyridyl)-4-oxo-1H-quinoline-3-carboxamide], the EC50 was in the range of 25 to 60 µM and the “% Activity” value is “+ (<25%)”.
